Test results from US11497733B2, “Combination therapy of HSP90 inhibitors and PD-1 inhibitors for treating cancer” (Synta Pharmaceuticals Corp., priority 2015, dated 2022).
Entries after “also recorded” stand apart in the source; their conditions may differ.

Experiments:
[1] = test system: MC38 colon carcinoma tumors; test: MC38 colon carcinoma syngeneic mouse tumor model, tumor growth; format: in vivo, C57 BL/6 mice; details: established MC38 tumors; ganetespib 125 mg/kg days 8 and 15; αPD-L1 200 μg days 8, 12, 15; FIG. 1A
Experimental: Such findings support the premise that targeting HSP90 may represent a complementary and therapeutically advantageous approach together with immune checkpoint blockade for augmenting antitumor immune responses.
The HSP90 inhibitor ganetespib potentiates the antitumor efficacy of PD-L1 antibody treatment in syngeneic mouse tumor models. In FIG. 1 (a), C57 BL/6 mice bearing established MC38 colon carcinoma tumors (n=7/group) were treated with 200 μg IgG1 control or anti-PD-L1 antibody (αPD-L1; Sorrento Therapeutics, Inc., San Diego), either alone or in combination with 125 mg/kg ganetespib. Ganetespib was dosed on a weekly schedule (days 8 and 15), αPD-L1 was administered on days 8, 12, and 15. […] In FIG. 1 (b), C57 BL/6 mice bearing established B16 melanoma tumors (n=3/group) were dosed using a similar regimen as in (a).

[2] = test system: MC38 tumors; test: Gene expression array (NanoString) of MC38 tumors after a ganetespib dose; format: in vivo, mice
Experimental: Mice with MC38 tumors received a dose of ganetespib. Tumors (3 per time point) were removed from the animals at 4, 24, 48 and 120 hr post dose. RNA was prepared and analyzed for gene expression using NanoString. Expression levels of genes were made by comparing drug treated tumors with vehicle-treated tumors.

[3] = test system: CT26 tumor cells; test: Chemokine production by CT26 tumor cells in vitro; format: cell-based; details: overnight, sublethal ganetespib with 300 U/ml TNFα, FIG. 8
Experimental: (§1) MC38 or CT26 tumor cells were incubated with the indicated concentrations of ganetespib as shown in FIG. 8 in combination with 300 U/ml TNFα overnight and supernatants were collected and assayed for chemokines.

[4] = test system: MC38 tumor cells; test: Chemokine production by MC38 tumor cells in vitro; format: cell-based, mouse; details: overnight, sublethal ganetespib with 300 U/ml TNFα, FIG. 8
Experimental: as §1

[5] = test system: HCC827 cells; test: MHC Class I surface expression on HCC827 cells, flow cytometry; format: cell-based; details: overnight incubation, FIG. 7A
Experimental: HCC827 cells were incubated with DMSO, Interferon gamma (IFNγ) or ganetespib and stained with anti MHC Class 1 antibodies and examined by flow cytometry to determine the number of molecules per cell surface.

[6] = test system: MC38 cells; test: MHC Class I (H2-K) surface expression on MC38 cells, flow cytometry; format: cell-based, mouse; details: overnight, 100 nM ganetespib (sublethal), FIG. 7B
Experimental: MC38 cells were incubated overnight with media+0.01% DMSO (dashed red line, light blue line), or media with 100 nM ganetespib (dotted red line, dark blue line). Cells were stained with an isotype control (red lines), or antibody to mouse H2-K (blue lines).

[7] = within 48-120 hr after in vivo treatment, versus vehicle-treated tumors

## CC(C)c1cc(-c2nnc(O)n2-c2ccc3c(ccn3C)c2)c(O)cc1O [ganetespib, 3-(2,4-DIHYDROXY-5- ISOPROPYL-PHENYL)-4-(1- METHYL-INDOL-5-YL)-5- HYDROXY-[1,2,4] TRIAZOLE (GANETESPIB)]
[1]
  tumor growth suppression / antitumor efficacy: comparable degree of tumor growth suppression to that seen following selective anti-PD-L1 antibody treatment
[2]; after a single ganetespib administration, FIG. 6
  influx of immune cells into tumors (gene expression): influx of T cells, B cells and NK cells into tumors
[2]; after in vivo treatment, versus vehicle-treated tumors
  chemokines in tumor (gene expression): Increases in a large number of chemokines
[2]; [7]
  NK cells and CD8 cells in tumor (gene expression): increased numbers of NK cells and CD8 cells
  Treg cells in tumor (gene expression): decreased Treg cells
[3]
  chemokine production (CCL2, CCL5, CXCL10): induces chemokine production; also recorded: provokes production of chemokines by the tumor cells (CCL2, CCL5, CXCL10)
[4]
  chemokine production (CCL2, CCL5, CXCL10): induces chemokine production; also recorded: provokes production of chemokines by the tumor cells (CCL2, CCL5, CXCL10)
[5]
  number of HLA-ABC molecules/cell: doubled
[6]
  major histocompatibility antigen (MHC Class I, H2-K) expression: upregulates major histocompatibility antigens, especially MHC Class I
